Columns and labels:
human stromal cells = test: proliferation of human stromal cells stimulated with PDGF; format: cell-based; settings: 50 ng/ml PDGF-BB
Procedure: Another assay for measuring activity of the inventive compounds involves determining PDGF (platelet derived growth factor) proliferative response using human-derived stromal cells. Human stromal cells are plated (e.g., about 2000 cells per well) in defined media (e.g., 69% McCoy's, 12.5% fetal calf serum, 12.5% horse serum, 1% antibiotics, 1% glutamine, 1% vitamin supplement, 0.8% essential amino acids, 1% sodium pyruvate, 1% sodium bicarbonate, 0.4% non-essential amino acids and 0.36% hydrocortisone). Two to three days later, the stromal cells are starved in serum-free media. Twenty four hours later, the cells are treated with a stimulating agent, such as PDGF-AA, PDGF-BB or basic FGF (fibroblast growth factor) with or without IL-1α or TNF, and tritiated thymidine. Cell proliferation is determined by liquid scintillation counting.
This example illustrates the ability of inventive compounds nos. […] This assay is a model for restenosis and treatment of atherosclerosis and coronary artery disease. Stromal cells were starved in serum-free media for one day and then stimulated with 50 ng/ml PDGF-BB. The drugs were added at the indicated concentrations one hour prior to PDGF stimulation. Tritiated thymidine was added for one day at the time of PDGF stimulation and the cells were harvested and counted by liquid scintillation counting 24 hours later. […]

[1] = tested on: MCF-7, Hurdlich, RAS and NIH-3T3 cells; test: cytotoxicity on several cell lines (BCECF viability); format: cell-based; settings: 24 hours; FIG. 13
Procedure: Each inventive compound is investigated for cytotoxicity to determine appropriate doses for biological activity assays and to prevent cytotoxic reactions in in vitro assays when characterizing activity. Cells (e.g., NIH-3T3, Ras transformed 3T3 cells, malignant melanoma LD2 cells, etc.) are added to microtiter plates and drug is added about two days after plating. Cell viability is determined using a fluorescent viability slain (e.g., 2',7'-bis-(2-carboroxyethyl)-5-(and -6)-carboxyfluorescein acetoxymethyl ester, BCECF excitation 488 nm and emission 525 nm) 24, 48 or 72 hours after addition of the drug.
1522 is not cytotoxic to several cell lines. The cells lines used were MCF-7 a human breast cancer-derived line, Hurdlich cells a human stromal derived line, RAS a codon-12 transformed malignant murine line, and NIH-3T3 a non-Ras transformed parent line of RAS. The cells were treated with various concentrations of drug, and 24 hours later, stained for viability using BCECF and analyzed for fluorescent die uptake (indicating viable cells) using a fluorescence plate reader.

[2] = tested on: murine peritoneal macrophages; test: IL-1α release from LPS-stimulated murine peritoneal macrophages; format: cell-based; settings: 0.25 mM, LPS 10 μg/ml
Procedure: (§1) This example illustrates the ability of inventive compound no. 1521 to inhibit IL-1α release from murine peritoneal macrophages when stimulated with LPS. This assay is a model for septic shock. Macrophages (10^5) were treated with LPS at 10 μg/ml in RPMI media containing 10% fetal calf serum. Supernatants were assayed for IL-1α by an ELISA technique at various times following LPS stimulation. The cells were treated one hour prior to LPS stimulation with 0.25 mM 1521.

[3] = tested on: murine peritoneal macrophages; test: TNF-α release from LPS-stimulated murine peritoneal macrophages; format: cell-based; settings: 0.25 mM, LPS 10 μg/ml
Procedure: as §1, with “inhibit TNF-α” for “inhibit IL-1α”, “for TNF” for “for IL-1α”, “mM of inventive compound no.” for “mM”

P388D1 cells [4] = test: TNF-α release from LPS-stimulated P388D1 cells; format: cell-based, murine; settings: 0.25 mM, LPS 10 μg/ml
Procedure: This example illustrates the ability of compound no. 1521 to inhibit TNF-α release from P388D1 cells (a murine monocyte/macrophage line) when stimulated with LPS. This assay is a model for septic shock. P388D1 cells (10^5) were treated with LPS at 10 μg/ml in RPMI media containing 10% fetal calf serum. Supernatants were assayed for TNF by an ELISA technique at various times following LPS stimulation. The cells were treated one hour prior to LPS stimulation with 0.25 mM compound no. 1521.

P388D1 cells [5] = test: IL-1α release from LPS-stimulated P388D1 cells; format: cell-based, murine; settings: 0.25 mM, LPS 10 μg/ml
Procedure: as §1, with “P388D1 cells” for “murine peritoneal macrophages”, “P388D1 cells” for “Macrophages”, “mM of compound no.” for “mM”

L929 cells = test: TNF-α-mediated cytotoxicity in L929 cells; format: cell-based, murine; settings: human TNF-α 300 pg/ml; FIG. 9
Procedure: An inventive compound can be assayed for activity protecting TNF-mediated cytotoxicity. In this assay, L929 murine fibroblast cells (10^4 cells per well) are incubated with either compounds at varying doses and media control for two hrs. […] The cells plus (or minus) drug plus TNF were incubated for 40 hrs at 37° C. The media is removed and replaced with fresh media containing 2% serum and 10 μg/ml of BCECF fluorescent dye and incubated for 30 min. The fluorescent dye-containing media is removed and replaced with PBS (phosphate buffered saline) and each well was assayed for fluorescence.
This assay is a model for septic shock. L929 cells (10^5) were treated with human TNF-α at 300 pg/ml in RPMI media containing 10% fetal calf serum with or without compound no. One day later, the cells were stained for viability using the fluorescent dye BCECF and fluorescence of the samples was analyzed using a Milipore plate reader.

[6] = tested on: U937 cells / activated human umbilical vein endothelial cells (HUVEC); test: adhesion of U937 cells to TNF-activated HUVEC; format: cell-based; settings: human TNF 20 ng/ml, 12 hours
Procedure: Another assay measures the effects of drug to inhibit adhesion of U937 cells to TNF-activated HUVEC cells In this experiment, HUVEC cells are induced with human TNF-α (20 ng/ml) and drug at varying concentrations for 14-16 hrs. U937 cells (a human monocyte cell line) are incubated and labeled with BCECF (10 μg/ml), a fluorescent dye. The U937 cell preparation (2.5×10^4 cells per well) is layered on top of the activated HUVEC cells. The cells are reverse spun to remove partially adhering and nonadhering U937 cell. The adherent U937 cells are measured by fluorescence on a fluorescent plate reader.
1521 to inhibit adhesion of U937 cells to activated human umbilical vein endothelial cells (HUVEC). HUVEC cells were activated with 20 ng/ml of human TNF for 12 hours. Compound no. 1521 was added to samples one hour prior to adding TNF. U937 cells preloaded with a fluorescent dye were added to the HUVEC cells and adhesion measured after washing. Compound no. […] Background adhesion of U937 cells to non-activated HUVEC is shown as a dashed line.

Row | Structure (SMILES) | inhibition of proliferation of stromal cells stimulated with PDGF (human stromal cells) | cytotoxicity (viability by BCECF) [1] | inhibition of IL-1α release [2] | inhibition of TNF-α release [3] | inhibition of TNF-α release (P388D1 cells [4]) | inhibition of IL-1α release (P388D1 cells [5]) | protection of L929 cells from TNF-induced cytotoxicity (L929 cells) | adhesion of U937 cells to activated HUVEC [6]
1 | CON=C(C)CCCCn1c(=O)c2c(ncn2C)n(C)c1=O [Compound no. 1522] | strongly inhibit proliferation of human stromal cells | non-toxic at therapeutic concentrations |  |  |  |  |  | 
2 | CC(CCCCn1c(=O)c2c(ncn2C)n(C)c1=O)=NO [Compound no. 1521] | strongly inhibit proliferation of human stromal cells |  | inhibited IL-1α release | inhibited TNF release | inhibited TNF release | inhibited IL-1α release | inhibited TNF-induced cytotoxicity in a dose dependent manner | reduced adhesion
